In the oligonucleotide strings, read from the 5' end, every base follows the letter of its sugar. An asterisk marks phosphorothioate; unmarked linkages are phosphodiester. Other units and linkages are bracketed, terminal groups are in braces. A string of capitals states the bases alone. d = 2'-deoxy (DNA); m = 2'-O-methyl; r = 2'-OH (RNA)
Tested on: PCSK9 mRNA
Assay: PCSK9 siRNA screening in HepG2 cells (lipofectamine 2000 transfection, PCSK9 mRNA by Quantigene, normalized to GAP-DH)
Type: cell-based, human
Conditions: for Mean percent remaining mRNA transcript at siRNA concentration/in cell type 30 nM/HepG2: 30 nM siRNA; for Mean percent remaining mRNA transcript at siRNA concentration/in cell type 3 nM/HepG2: 3 nM siRNA; for Mean percent remaining mRNA transcript at siRNA concentration/in cell type 100 nM/HepG2: 100 nM siRNA
How it was run: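 PCSK9 silencing was assessed in HepG2 cells by lipofectamine 2000 siRNA transfection in 96-well plates. Twenty-four hours later, lysates were analyzed with the Quantigene Explore Kit, with PCSK9 signal normalized to GAP-DH. Eight datapoints were collected per siRNA, and remaining transcript was expressed as a percentage of cells treated with an unrelated control siRNA duplex.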

| Substance | Mean percent remaining mRNA transcript at siRNA concentration/in cell type 30 nM/HepG2 [%] | also measured |
| --- | --- | --- |
| AD-9527: PCSK9 siRNA (sense rGrCrCrArArCrCrCrGrCrUrCrCrArCrUrArCrCdT*dT; antisense rGrGrUrArGrUrGrGrArGrCrGrGrGrUrUrGrGrCdT*dT) | 45 | – |
| AD-9324: PCSK9 siRNA (sense rGrCrCrArUrCrUrGrCrUrGrCrCrGrGrArGrCrCdT*dT; antisense rGrGrCrUrCrCrGrGrCrArGrCrArGrArUrGrGrCdT*dT) | 59 | Mean percent remaining mRNA transcript at siRNA concentration/in cell type 3 nM/HepG2: 67% |
| AD-9714: PCSK9 siRNA (sense rGrGmUmCrAmCmCrGmCmUrGmCmCrGrGmCrArAmCdT*dT; antisense rGrUrUrGrCrCrGrGmCrArGrCrGrGrUrGrArCrCdT*dT) | 106 | – |
| AD-9611: PCSK9 siRNA (sense rUrCrCrUrArGrArCrArCrCrArGrCrArUrArCrAdT*dT; antisense rUrGrUrArUrGrCrUrGrGrUrGrUrCrUrArGrGrAdT*dT) | 48 | – |
| AD-9684: PCSK9 siRNA (sense mUrAmUmCmUmUmUmUrGrGrGmUmCmUrGmUmCmCmUdT*dT; antisense rArGrGrAmCrArGrArCrCmCrArArArArGrAmUrAdT*dT) | 63 | – |
| AD-9744: PCSK9 siRNA (sense rGrArGmCrAmUrGrGrArAmUmCmCmCrGrGmCmCmCdT*dT; antisense rGrGrGrCrCrGrGrGrArUrUrCmCrArUrGrCrUrCdT*dT) | 91 | – |
| AD-9690: PCSK9 siRNA (sense mUmCrAmUmUrGrGmUrGmCmCmUmCmCrArGmCrGrAdT*dT; antisense rUrCrGrCrUrGrGrArGrGmCrArCmCrArArUrGrAdT*dT) | 92 | – |
| AD-9652: PCSK9 siRNA (sense mUmCmCmCrArGmCmCrArGrGrAmUmUmCmCrGmCrGdT*dT; antisense rCrGrCrGrGrArArUrCrCrUrGrGrCrUrGrGrGrAdT*dT) | 97 | – |
| AD-9677: PCSK9 siRNA (sense UGGCGGGUGGGUACAGCCGTT; antisense CGGCUGUACCCACCCGCCATT; chemistry not given here) | 62 | – |
| AD-9763: PCSK9 siRNA (sense rGrArGrGrGmCrArGrGrGmUmCrAmUrGrGmUmCrAdT*dT; antisense rUrGrArCmCrArUrGrArCrCrCrUrGrCrCrCrUrCdT*dT) | 79 | – |
| AD-9555: PCSK9 siRNA (sense rGrUrCrArGrGrArGrCrCrGrGrGrArCrGrUrCrAdT*dT; antisense rUrGrArCrGrUrCrCrCrGrGrCrUrCrCrUrGrArCdT*dT) | 34 | – |
| AD-9597: PCSK9 siRNA (sense rArGrCrCrArArGrCrCrUrCrUrUrCrUrUrArCrUdT*dT; antisense rArGrUrArArGrArArGrArGrGrCrUrUrGrGrCrUdT*dT) | 23 | IC50: 0.04 nM; Mean percent remaining mRNA transcript at siRNA concentration/in cell type 3 nM/HepG2: 21% |
| AD-9691: PCSK9 siRNA (sense mUrAmCmUmCmUrGmCmUmCmUrAmUrGmCmCrArGrGdT*dT; antisense rCrCrUrGrGmCrAmUrArGrArGmCrArGrArGmUrAdT*dT) | 49 | – |
| AD-9570: PCSK9 siRNA (sense rCrUrGrCrCrGrGrGrCrCrCrArCrArArCrGrCrUdT*dT; antisense rArGrCrGrUrUrGrUrGrGrGrCrCrCrGrGrCrArGdT*dT) | 42 | Mean percent remaining mRNA transcript at siRNA concentration/in cell type 100 nM/HepG2: 35% |
| AD-9592: PCSK9 siRNA (sense rCrCrUrArGrArCrArCrCrArGrCrArUrArCrArGdT*dT; antisense rCrUrGrUrArUrGrCrUrGrGrUrGrUrCrUrArGrGdT*dT) | 55 | Mean percent remaining mRNA transcript at siRNA concentration/in cell type 100 nM/HepG2: 46% |
